According to ChEMBL document CHEMBL3046573, “Baseline sensitivity of Pestalotiopsis microspora, which causes black spot disease on Chinese hickory (Carya cathayensis), to pyraclostrobin” (Crop Prot, 2012):
≈ marks a conversion by molar mass, not a printed value.

Assays:
[1] = test system: Pestalotiopsis microspora; experiment: Resistance factor, ratio of EC50 for pyraclostrobin-resistant mutant Pestalotiopsis microspora isolate LA1R2 to EC50 for wild type Pestalotiopsis microspora isolate LA-1; assay type: functional
[2] = test system: Pestalotiopsis microspora; experiment: Resistance factor, ratio of EC50 for pyraclostrobin-resistant mutant Pestalotiopsis microspora isolate LA1R1 to EC50 for wild type Pestalotiopsis microspora isolate LA-1; assay type: functional
[3] = test system: Pestalotiopsis microspora; experiment: Fungicidal activity against pyraclostrobin-resistant mutant Pestalotiopsis microspora isolate CA8R3 assessed as conidium germination inhibition at 25 degC; assay type: functional, organism-based
[4] = test system: Pestalotiopsis microspora; experiment: Fungicidal activity against pyraclostrobin-resistant mutant Pestalotiopsis microspora isolate CA8R2 assessed as conidium germination inhibition at 25 degC; assay type: functional, organism-based
[5] = test system: Pestalotiopsis microspora; experiment: Fungicidal activity against pyraclostrobin-resistant mutant Pestalotiopsis microspora isolate CA8R1 assessed as conidium germination inhibition at 25 degC; assay type: functional, organism-based
[6] = test system: Pestalotiopsis microspora; experiment: Fungicidal activity against wild type Pestalotiopsis microspora isolate CA-8 assessed as conidium germination inhibition at 25 degC; assay type: functional, organism-based
[7] = test system: Pestalotiopsis microspora; experiment: Fungicidal activity against pyraclostrobin-resistant mutant Pestalotiopsis microspora isolate LA1R2 assessed as conidium germination inhibition at 25 degC; assay type: functional, organism-based
[8] = test system: Pestalotiopsis microspora; experiment: Fungicidal activity against pyraclostrobin-resistant mutant Pestalotiopsis microspora isolate LA1R1 assessed as conidium germination inhibition at 25 degC; assay type: functional, organism-based
[9] = test system: Pestalotiopsis microspora; experiment: Fungicidal activity against wild type Pestalotiopsis microspora isolate LA-1 assessed as conidium germination inhibition at 25 degC; assay type: functional, organism-based
[10] = test system: Pestalotiopsis microspora; experiment: Fungicidal activity against Pestalotiopsis microspora infected in Chinese hickory orchards assessed as conidium germination inhibition at 25 degC after 24 hr; assay type: functional, organism-based
[11] = test system: Pestalotiopsis microspora; experiment: Fungicidal activity against Pestalotiopsis microspora infected Chinese hickory orchards assessed as mycelial growth inhibition at 25 degC after 5 days; assay type: functional, organism-based; details: 120 h
[12] = test system: Pestalotiopsis microspora; experiment: Resistance factor, ratio of EC50 for pyraclostrobin-resistant mutant Pestalotiopsis microspora isolate CA8R3 to EC50 for wild type Pestalotiopsis microspora isolate CA-8; assay type: functional
[13] = test system: Pestalotiopsis microspora; experiment: Resistance factor, ratio of EC50 for pyraclostrobin-resistant mutant Pestalotiopsis microspora isolate CA8R2 to EC50 for wild type Pestalotiopsis microspora isolate CA-8; assay type: functional
[14] = test system: Pestalotiopsis microspora; experiment: Resistance factor, ratio of EC50 for pyraclostrobin-resistant mutant Pestalotiopsis microspora isolate CA8R1 to EC50 for wild type Pestalotiopsis microspora isolate CA-8; assay type: functional
[15] = test system: Pestalotiopsis microspora; experiment: Fungicidal activity against Pestalotiopsis microspora isolates infected Chinese hickory orchards by conidium germination test; assay type: functional, organism-based

CO/C=C(/C(=O)OC)c1ccccc1Oc1cc(Oc2ccccc2C#N)ncn1 [AZOXYSTROBIN]
Ratio EC50 [1]: 38.16 | Ratio EC50 [2]: 14.94 | EC50 [3]: 15.4 µg/mL (≈ 38.2 µM) | EC50 [4]: 21.9 µg/mL (≈ 54.3 µM) | EC50 [5]: 17.3 µg/mL (≈ 42.9 µM) | EC50 [6]: 0.76 µg/mL (≈ 1.88 µM) | EC50 [7]: 12.2 µg/mL (≈ 30.3 µM) | EC50 [8]: 4.78 µg/mL (≈ 11.8 µM) | EC50 [9]: 0.32 µg/mL (≈ 0.793 µM) | EC50 [10]: 1.36 µg/mL (≈ 3.37 µM) | EC50 [11]: 2.61 µg/mL (≈ 6.47 µM) | Ratio EC50 [12]: 20.25 | Ratio EC50 [13]: 28.82 | Ratio EC50 [14]: 22.75

O=C(Nc1ccccc1-c1ccc(Cl)cc1)c1cccnc1Cl [BOSCALID]
Ratio EC50 [1]: 1.02 | Ratio EC50 [2]: 0.98 | EC50 [3]: 19 µg/mL (≈ 55.4 µM) | EC50 [4]: 17.7 µg/mL (≈ 51.6 µM) | EC50 [5]: 18.1 µg/mL (≈ 52.7 µM) | EC50 [6]: 18.6 µg/mL (≈ 54.2 µM) | EC50 [7]: 20.6 µg/mL (≈ 60 µM) | EC50 [8]: 19.7 µg/mL (≈ 57.4 µM) | EC50 [9]: 20.1 µg/mL (≈ 58.6 µM) | EC50 [10]: 23.9 µg/mL (≈ 69.7 µM) | EC50 [11]: 167 µg/mL (≈ 486 µM) | Ratio EC50 [12]: 1.05 | Ratio EC50 [13]: 0.95 | Ratio EC50 [14]: 0.97

N#Cc1c(Cl)c(Cl)c(Cl)c(C#N)c1Cl [CHLOROTHALONIL]
EC50 [10]: 3.05 µg/mL (≈ 11.5 µM) | EC50 [11]: 2.08 µg/mL (≈ 7.82 µM)

CC1COC(Cn2cncn2)(c2ccc(Oc3ccc(Cl)cc3)cc2Cl)O1 (configuration not stated) [DIFENOCONAZOLE]
EC50 [10]: 28.5 µg/mL (≈ 70.1 µM) | EC50 [11]: 4.27 µg/mL (≈ 10.5 µM)

CC(=O)O.CCCCCCCCCCCCNC(=N)N [DODINE]
EC50 [10]: 32.7 µg/mL | EC50 [11]: 27 µg/mL

CC(C)NC(=O)N1CC(=O)N(c2cc(Cl)cc(Cl)c2)C1=O [IPRODIONE]
EC50 [10]: 9.87 µg/mL (≈ 29.9 µM) | EC50 [11]: 2.03 µg/mL (≈ 6.15 µM)

CC12CC1(C)C(=O)N(c1cc(Cl)cc(Cl)c1)C2=O (configuration not stated) [PROCYMIDONE]
EC50 [10]: 12 µg/mL (≈ 42.3 µM) | EC50 [11]: 1.68 µg/mL (≈ 5.91 µM)

COC(=O)N(OC)c1ccccc1COc1ccn(-c2ccc(Cl)cc2)n1 [PYRACLOSTROBIN]
Ratio EC50 [1]: 406 | Ratio EC50 [2]: 179 | EC50 [3]: 4.25 µg/mL (≈ 11 µM) | EC50 [4]: 9.59 µg/mL (≈ 24.7 µM) | EC50 [5]: 8.17 µg/mL (≈ 21.1 µM) | EC50 [6]: 0.04 µg/mL (≈ 0.103 µM) | EC50 [7]: 12.2 µg/mL (≈ 31.4 µM) | EC50 [8]: 5.67 µg/mL (≈ 14.6 µM) | EC50 [9]: 0.03 µg/mL (≈ 0.0774 µM) | EC50 [10]: 0.08 µg/mL (≈ 0.206 µM) | EC50 [11]: 0.92 µg/mL (≈ 2.37 µM) | EC50 [15]: 0.13 µg/mL (≈ 0.335 µM) | Ratio EC50 [12]: 106 | Ratio EC50 [13]: 240 | Ratio EC50 [14]: 204

CC(C)(C)C(O)(CCc1ccc(Cl)cc1)Cn1cncn1 (configuration not stated) [TEBUCONAZOLE]
EC50 [10]: 20.1 µg/mL (≈ 65.3 µM) | EC50 [11]: 1.42 µg/mL (≈ 4.61 µM)

COC(=O)NC(=S)Nc1ccccc1NC(=S)NC(=O)OC [THIOPHANATE METHYL]
EC50 [10]: 25.7 µg/mL (≈ 75 µM) | EC50 [11]: 1.45 µg/mL (≈ 4.23 µM)
